{"source": "paper PMC6169518", "about": "(Environmental science & technology, 2016)", "key": {"recombinant human CYPs": {"system": "recombinant human CYPs", "assay": "Oxidation of FLC by a panel of human recombinant CYP isozymes", "assay_type": "in vitro ADME", "conditions": "50 nM recombinant human CYPs, 60 min"}, "[1]": {"system": "glutathione S-transferase (GST)"}, "[2]": {"assay": "Quantification of FLC in mouse serum after single oral administration", "assay_type": "in vivo", "conditions": "mice"}, "[3]": {"assay": "24-h excretion of unchanged FLC in mouse urine, feces and bile", "assay_type": "in vivo", "conditions": "mice, oral, 0-24 h"}, "[4]": {"system": "microsomal GST in human liver microsomes (HLM)", "assay": "Kinetic analysis of GSH conjugation", "assay_type": "in vitro ADME"}, "[5]": {"system": "microsomal GST in mouse liver microsomes (MLM)", "assay": "Kinetic analysis of GSH conjugation", "assay_type": "in vitro ADME"}, "[6]": {"system": "cytosolic GST in human liver cytosols (HLC)", "assay": "Kinetic analysis of GSH conjugation", "assay_type": "in vitro ADME", "conditions": "FLC-SG formation, Michaelis-Menten"}, "[7]": {"system": "cytosolic GST in mouse liver cytosols (MLC)", "assay": "Kinetic analysis of GSH conjugation", "assay_type": "in vitro ADME", "conditions": "FLC-SG formation, Michaelis-Menten"}, "mice": {"system": "mice", "assay": "Toxicity of FLC in mice fed diet containing 0.5% FLC for 10 days", "assay_type": "in vivo", "conditions": "diet containing 0.5% FLC vs control diet"}, "[8]": {"conditions": "rats and rabbits; cited from earlier work"}, "[9]": {"system": "Chinese Hamster Ovary K1 (CHO-K1) cells", "conditions": "cited from earlier work"}, "rats": {"system": "rats", "conditions": "45 and 90 days of dosing and last recovery day; cited from earlier work"}, "[10]": {"system": "Human liver microsomes (HLM)", "assay": "Human liver microsome incubation of FLC", "conditions": "60 min"}, "[11]": {"conditions": "HLM, FLC-SG formation, Michaelis-Menten"}, "[12]": {"conditions": "MLM, FLC-SG formation, Michaelis-Menten"}}, "note": "“And” between values parts separate entries of the source, which are not always exact repeats. Equal values may be shown once.", "data": [{"compound": "O=C1C(Cl)C(CCl)C(O)N1c1cccc(C(F)(F)F)c1", "note": "(stereo not shown) [M5–1]", "values": [{"measurement": "CYP isozymes catalysing formation of the metabolite from FLC", "setting": "recombinant human CYPs", "value": "CYP1A1, 1A2, and 3A4"}]}, {"compound": "N[C@@H](CCC(=O)N[C@@H](CSC1C(=O)N(c2cccc(C(F)(F)F)c2)CC1CCl)C(=O)NCC(=O)O)C(=O)O", "note": "(stereo partly shown) [M13]", "values": [{"measurement": "M13 detected in buffer", "setting": "[1]; buffer with GSH, without microsomes or cytosols", "value": "trace amount"}, {"measurement": "formation of M13 in microsomes relative to cytosols", "setting": "[1]; microsomes vs cytosols, with GSH", "value": "more than 2 fold"}]}, {"compound": "O=C1C(Cl)C(CCl)CN1c1cccc(C(F)(F)F)c1", "note": "(racemic) [FLC, (3RS,4RS;3RS,4SR)-3-chloro-4-chloromethyl-1-(α,α,α-tri-fluoro-m-tolyl)-2-pyrrolidone]", "values": [{"measurement": "concentration of FLC in serum", "setting": "[2]; high dose group (50 mg/kg oral), 4 h post-dose", "value": "8020 ± 2810", "unit": "nM"}, {"measurement": "concentration of FLC in serum", "setting": "[2]; high dose group (50 mg/kg oral), 24 h post-dose", "value": "285 ± 76", "unit": "nM"}, {"measurement": "concentration of FLC in serum", "setting": "[2]; low dose group (5 mg/kg oral), 4 h post-dose", "value": "941 ± 220", "unit": "nM"}, {"measurement": "concentration of FLC in serum", "setting": "[2]; low dose group (5 mg/kg oral), 24 h post-dose", "value": "53 ± 25", "unit": "nM"}, {"measurement": "24-h excretion of FLC in bile", "setting": "[3]; bile", "value": "undetectable"}, {"measurement": "24-h excretion rate of FLC in feces", "setting": "[3]; feces", "value": "1.21−1.40%"}, {"measurement": "maximum clearance (Vmax/Km) of GSH conjugation, HLM over HLC", "setting": "[4]; HLM vs HLC", "value": "approximately 5.5 fold"}, {"measurement": "Km", "setting": "[4]; [11]", "value": 374, "unit": "µM"}, {"measurement": "Vmax", "setting": "[4]; [11]", "value": 5.63, "unit": "pmol·min^−1·mg protein^−1"}, {"measurement": "maximum clearance (Vmax/Km) of GSH conjugation, MLM over MLC", "setting": "[5]; MLM vs MLC", "value": "approximately 11.2 fold"}, {"measurement": "Km", "setting": "[5]; [12]", "value": 367, "unit": "µM"}, {"measurement": "Vmax", "setting": "[5]; [12]", "value": "9.5 pmol·min^−1·mg protein^−1 and 9.50 pmol·min^−1·mg protein^−1"}, {"measurement": "Km", "setting": "[6]", "value": 148, "unit": "µM"}, {"measurement": "Vmax", "setting": "[6]", "value": 0.404, "unit": "pmol·min^−1·mg protein^−1"}, {"measurement": "Vmax", "setting": "[7]", "value": 4.65, "unit": "pmol·min^−1·mg protein^−1"}, {"measurement": "Alanine transaminase (ALT)", "setting": "mice", "value": "elevated significantly"}, {"measurement": "triglycerides", "setting": "mice; hepatic", "value": "slightly increased"}, {"measurement": "aqueous peroxide", "setting": "mice; liver", "value": "slightly increased"}, {"measurement": "excretion rate of unchanged FLC", "setting": "[8]", "value": "less than 1.5 % of the applied dose"}, {"measurement": "DNA damage", "setting": "[9]", "value": "induce single-strand DNA breaks"}, {"measurement": "histopathological observations", "setting": "rats", "value": "testis and epididymis lesions were consistently observed"}, {"measurement": "parent compound consumed", "setting": "[10]; HLM supplemented with NADPH", "value": "Approximately 30%"}, {"measurement": "more consumption of FLC", "setting": "[10]; coincubation with GSH, NADPH and HLM", "value": 40, "unit": "%"}]}, {"compound": "O=C1C(Cl)C(CO)CN1c1cccc(C(F)(F)F)c1", "note": "(stereo not shown) [M3]", "values": [{"measurement": "CYP isozymes catalysing formation of the metabolite from FLC", "setting": "recombinant human CYPs", "value": "CYP1A1, 1A2, 2C8, 2C9, 2E1, and 3A4"}]}, {"compound": "O=C1C(Cl)C(CCl)C(O)N1c1cccc(C(F)(F)F)c1", "note": "(stereo not shown) [M5–2]", "values": [{"measurement": "CYP isozymes catalysing formation of the metabolite from FLC", "setting": "recombinant human CYPs", "value": "CYP1A1, 1A2, and 3A4"}]}]}
